“Also recorded” adds a separate entry of the source. Read-outs that look alike come from different tables or passages of the source. Blank lines part the entries; values can stand above or below the compound they belong to.
Legend:
ERK1/2 = experiment: MAPK activation in ECV304 cells (immunoblot of nuclear phosphorylated ERK1/2); format: cell-based; conditions: for effect on T4-induced ERK1/2 activation (in words): PD 98059 30 μmol/L or CGP41251 100 nmol/L for 30 minutes, then 10^−7 M T4 for 15 minutes
Procedure: ECV304 endothelial cells were cultured in M199 medium with 0.25% hormone-depleted serum 13 for 2 days. […] Nuclear fractions were prepared from all samples by the method reported previously (see Li et al., Carcinogenesis 29:62-69 (2008)), the proteins separated by polyacrylamide gel electrophoresis, and transferred to membranes for immunoblotting with antibody to phosphorylated ERK 1/2.

V-79 cells = conditions: cited from earlier work
ECV304 endothelial cells = experiment: FGF2 release from ECV304 endothelial cells (ELISA); format: cell-based
Procedure: ECV304 endothelial cells were cultured in M199 medium supplemented with 10% fetal bovine serum. […] After 72 hours, the supernatants were harvested and assays for FGF performed without dilution using a commercial ELISA system (R&D Systems) (See Davis et al., Circ Res 94:1500-1506 (2004)).

[1] = tested on: chick chorioallantoic membrane (CAM) blood vessel branch points; experiment: Chick chorioallantoic membrane (CAM) model of angiogenesis; format: in vivo; conditions: for generation of new blood vessels from existing vessels promoted: 10^−7-10^−9 M
Procedure: In vivo neovascularization was examined by methods described previously. 9-12 Ten-day-old chick embryos were purchased from SPAFAS (Preston, Conn.) and incubated at 37° C. with 55% relative humidity. A hypodermic needle was used to make a small hole in the shell concealing the air sac, and a second hole was made on the broad side of the egg, directly over an avascular portion of the embryonic membrane that was identified by candling. A false air sac was created beneath the second hole by the application of negative pressure at the first hole, causing the CAM to separate from the shell. […] Thyroid hormone, hormone analogs, FGF2 or control solvents, and inhibitors were then applied to the disks and the disks allowed to dry. The disks were then suspended in PBS and placed on growing CAMs. […] At 24 hours, the MAPK cascade inhibitor PD 98059 was also added to CAMs topically by means of the filter disks. […] The number of vessel branch points contained in a circular region equal to the area of each filter disk were counted. […] In addition, each experiment was performed 3 times. The resulting angiogenesis index is the mean±SEM of new branch points.

pKa of functional groups = format: physicochemical; conditions: estimated
FGF2 cDNA = experiment: RT-PCR of FGF2 in ECV304 cells; format: cell-based; conditions: T4 10^−7 mol/L, apparent by 6 hours, further enhanced by 48 hours
Procedure: RNA (1 μg) was subjected to reverse transcription-polymerase chain reaction (RT-PCR) using the Access RT-PCR system (Promega). Total RNA was reverse transcribed into cDNA at 48° C. for 45 minutes, then denatured at 94° C. for 2 minutes. Second-strand synthesis and PCR amplification were performed for 40 cycles with denaturation at 94° C. for 30 s, annealing at 60° C. for 60 s, and extension at 68° C. for 120 s, with final ex-tension for 7 minutes at 68° C. after completion of all cycles. PCR primers for FGF2 were as follows: FGF2 sense strand 5′-[…]-3′ (SEQ ID NO:1), antisense strand 5′ […]-3′ (SEQ ID NO:2); the length of the PCR product was 734 bp. Primers for GAPDH included the sense strand 5′-[…]-3′ (SEQ ID NO:3), and antisense strand 5′-[…]-3′ (SEQ ID NO:4); the length of the PCR product was 218 bp. […] The target bands of the gel were quantified using LabImage software (Kapelan), and the value for [FGF2/GAPDH]X10 calculated for each time point.

SF763 glioblastoma cells = conditions: 85 μM, 16 hours at 37° C., cited from earlier work
Morris 7800 hepatoma = conditions: PTU 0.1%; cited from earlier work
[2] = tested on: glioblastoma (GBM) patients; conditions: induction of mild hypothyroidism; cited from earlier work
[3] = tested on: transplantable liver tumor; conditions: cited from earlier work
[4] = tested on: matrigel plug angiogenesis; experiment: Mouse matrigel model of angiogenesis (plug hemoglobin); format: in vivo, mice (C57BL/6NCr); conditions: numbers are Tetrac analogs of Example 13; for Mean inhibition of angiogenesis (%) / Hemoglobin (mg/mL) ± SEM: FGF 100 ng + test substance 10 μg/plug; for Hemoglobin (mg/mL) ± SEM: n = 7-14
Procedure: Normal male mice (C57BL/6NCr) 6-8 weeks of age and weighing ˜20 g were purchased from Taconic farm. Animals were housed 4 per cage, in controlled conditions of temperature (20-24° C.); humidity (60-70%) and 12 hrs. light/dark cycle provided with food and water ad libitum. […] Aliquots of matrigel were placed into cold polypropylene tubes to prevent the matrigel from solidifying and the angiogenesis promoter added to matrigel with or without agonist. Mice were treated daily. Matrigel was subcutaneously injected as triple injection per animal at 100 μL/animal. At day 14 post plug implant all animals were killed in CO2 chamber and matrigel plugs were collected. Plug hemoglobin content was analyzed from three implants/mice (n=6 per group) to measure angiogenesis.
The matrigel plugs dissected from the mice were carefully stripped of any remaining peritoneum. The plugs were placed into 0.5 mL tube of ddH2O and homogenized for 5-10 min. […] Absorbance was read with a Microplate Manager ELISA reader at 540 nm. […] Hemoglobin concentration is a reflection of the number of blood vessels in the plugs.

M21 melanoma cells = conditions: 20 ug/ml; doses of 0, 5, and 10 Gy; cited from earlier work

Compound: CO[C@@H]1[C@H](N(C)C(=O)c2ccccc2)C[C@H]2O[C@]1(C)n1c3ccccc3c3c4c(c5c6ccccc6n2c5c31)C(=O)NC4 [CGP41251]
effect on T4-induced ERK1/2 activation (in words) (ERK1/2): blocked

Compound: NC(=O)c1cccc(N)c1 [Compound 3AB, 3-aminobenzamide]
inhibition of PLDR (V-79 cells; Thraves et al.): ~70% | Dq value (V-79 cells; with 3AB, without 3.4): 1 Gy

Compound: N[C@@H](Cc1cc(I)c(Oc2ccc(O)c(I)c2)c(I)c1)C(=O)O [Compound T3, 3,5,3′-triiodo-L-thyronine]
FGF2 (pg/mL/10^6 cells) (ECV304 endothelial cells; T3 (0.01 μmol/L), 3 days, Control 27.7 ± 3.1): 98.8 ± 0.5 pg/mL/10^6 cells | increase in blood vessel branch formation ([1]; 1 nmol/L (1 nM) for 3 days, vs PBS): 2 fold | generation of new blood vessels from existing vessels promoted [1]: two- to three-fold

pKa (pKa of functional groups; read-out: pKa of the COOH (carboxylic acid) group): ~2 | pKa (pKa of functional groups; read-out: pKa of the NH2 (amino) group): ~9
Compound: N[C@@H](Cc1cc(I)c(Oc2cc(I)c(O)c(I)c2)c(I)c1)C(=O)O [Compound T4, L-thyroxine]
abundance of FGF2 cDNA, corrected for GAPDH content (in words) (FGF2 cDNA): increase in abundance of FGF2 cDNA | appearance of phosphorylated ERK1/2 in cell nuclei (ERK1/2; T4 10^−7 mol/L): ≤ 15 min | time of maximal level of nuclear phosphorylated ERK1/2 (ERK1/2; T4 10^−7 mol/L): 30 min | effect on MAPK activation caused by FGF2 (in words) (ERK1/2; T4 10^−7 mol/L + FGF2 10 ng/mL, 15-minute co incubation): enhanced the MAPK activation caused by FGF2 | generation of new blood vessels from existing vessels promoted [1]: two- to three-fold | effect on the angiogenic effect of sub-maximal FGF2 (in words) ([1]; T4 0.05 μmol/L + FGF2 0.5 μg/mL): enhanced

Compound: CC(C)[C@H]1C(=O)N[C@@H](CCCN=C(N)N)C(=O)NCC(=O)N[C@@H](CC(=O)O)C(=O)N[C@H](Cc2ccccc2)C(=O)N1C [EMD121974]
increase of α (SF763 glioblastoma cells): 4.4 fold | α component in the LQ survival equation (SF763 glioblastoma cells; without approximately 0.04): ~0.18 Gy^−1

Compound: COc1cccc(-c2cc(=O)c3ccccc3o2)c1N [PD 98059]
FGF2 (pg/mL/10^6 cells) (ECV304 endothelial cells; T3 + PD 98059 (2 μmol/L)): 28.4 ± 3.2 pg/mL/10^6 cells | FGF2 (pg/mL/10^6 cells) (ECV304 endothelial cells; T3 + PD 98059 (20 μmol/L)): 21.7 ± 3.5 pg/mL/10^6 cells | FGF2 (pg/mL/10^6 cells) (ECV304 endothelial cells; T4 + PD 98059 (2 μmol/L)): 26.5 ± 4.5 pg/mL/10^6 cells | FGF2 (pg/mL/10^6 cells) (ECV304 endothelial cells; T4 + PD 98059 (20 μmol/L)): 23.2 ± 4.8 pg/mL/10^6 cells | effect on T4-induced ERK1/2 activation (in words) (ERK1/2): inhibited | effect on angiogenesis stimulated by T4 and T3 together (in words) ([1]; PD 98059 3 μmol/L, T4 0.1 μmol/L and T3 1 nmol/L): completely blocked; also recorded: fully inhibited | effect on FGF2 stimulation of branch formation (in words) ([1]; PD 98059, FGF2 1 μg/mL): effectively blocked

Compound: CCCc1cc(=O)[nH]c(=S)[nH]1 [PTU, 6-N-propyl-2-thiouracil]
increase in survival (Morris 7800 hepatoma): approximately 1.3 fold | improvement of the duration of survival [2]: 3 fold | time needed to grow from approximately 270 mm^3 to 900 mm^3 ([3]; 10 Gy of x-rays plus 0.05% PTU in the drinking water, control 6.2, x-rays alone 11.2): 17.8 days | growth rate with PTU alone (in words) ([3]; in vivo): no difference in growth rate from control neoplasms | effect of the presence of PTU on the effect of T4 (in words) ([1]; filter disks pretreated with 1 mmol/L PTU): did not reduce the effect of T4

Compound: CC(C)[Si](OC(=O)Cc1cc(I)c(Oc2cc(I)c(O)c(I)c2)c(I)c1)(C(C)C)C(C)C [Tetrac analog 5, Triisopropylsilyl-2-(4-(4-hydroxy-3,5-diiodophenoxy)-3,5-diiodophenyl)acetate]
Mean inhibition of angiogenesis (%) [4]: 104 ± 14% | Hemoglobin (mg/mL) ± SEM [4]: 0.2 ± 0.1 mg/mL | inhibition of FGF-induced angiogenesis (in words) [4]: strong | melting point: 146 °C | Mean % Inhibition ([1]; FGF (1.25 μg/ml) + test substance, 10 μg/plug per footnote, numbers are Tetrac analogs of Example 13): 75 ± 19% | Mean Branch points ([1]; FGF (1.25 μg/ml) + test substance, 10 μg/plug per footnote, numbers are Tetrac analogs of Example 13, n = 8, PBS 73 ± 6, FGF 130 ± 11): 87 ± 11

Compound: O=C(Cc1cc(I)c(Oc2cc(I)c(OCC3CO3)c(I)c2)c(I)c1)NC1CCCCC1 (stereo not shown) [Tetrac analog 6, N-cyclohexyl-2-(4-(3,5-diiodo-4-(oxiran-2-ylmethoxy)phenoxy)-3,5-diiodophenyl)acetamide]
Mean inhibition of angiogenesis (%) [4]: 80 ± 16% | Hemoglobin (mg/mL) ± SEM [4]: 0.7 ± 0.1 mg/mL | inhibition of FGF-induced angiogenesis (in words) [4]: strong | melting point: 242 °C | inhibition of angiogenesis in the CAM assay (in words) ([1]; numbers are Tetrac analogs of Example 13): not as strong as compounds 3, 5, 7, and 9

Compound: CNTO 95: human anti-αv integrin monoclonal antibody
increase in sensitivity (in vitro apoptosis) by a factor of (M21 melanoma cells): 2 fold
